Molecular target: Protein Tat (Human immunodeficiency virus type 1 group M subtype B (isolate HXB2)) (UniProt P04608)
Experiment: inhibitors of Tat binding to TAR RNA, dose response, counter-screen for Vif-APOBEC3G degradation inhibitor project, biochemical, fluorescence polarization, FAM-labeled TAR RNA (AID 1117361)

Chain of Protein Tat (Human immunodeficiency virus type 1 group M subtype B (isolate HXB2)) (P04608 whole entry, looked up): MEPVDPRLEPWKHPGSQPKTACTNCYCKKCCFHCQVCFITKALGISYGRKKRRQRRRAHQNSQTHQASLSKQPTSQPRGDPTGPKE

SMILES	IC50 [µM]
COc1cc(-c2cccs2)cc(=O)c2c(C)oc(C)c12	22.7
O=C(Nc1ccc(Br)cn1)c1coc(=O)c(Br)c1	79.5
O=C(O)c1cc(N2N=C(C(F)(F)F)/C(=C/C=C/c3ccco3)C2=O)ccc1Cl	0.616
CN(C)[C@@H]1C(=O)C(C(=O)NCN2CCCC2)=C(O)[C@@]2(O)C(=O)C3=C(O)c4c(O)cccc4[C@@](C)(O)C3CC12 (stereo partly specified)	2.46
COc1ccccc1-n1c(-c2cc(-c3ccco3)[nH]n2)n[nH]c1=S	5.36
Cc1cccc(N/N=C/c2ccc(O)c(O)c2O)c1	36
CCOC(=O)C1=C(N)n2c(s/c(=C\c3ccco3)c2=O)=C(C(=O)OC(C)C)C1c1ccco1 (stereo unspecified)	3.45
O=C(NC1CCCC1)c1ccc2nc(-c3ccco3)c(-c3ccco3)nc2c1	2.08
c1cncc(-c2nnc3sc(-c4ccco4)nn23)c1	64
CCOC(=O)C(=O)Cc1cccnn1	49.5
CC(C)CC(=O)Nc1nnc(-c2ccco2)s1	53.8
Cc1cc(C(=O)NCCCN2CCCC2=O)no1	24
O=C(c1ccc2nc(-c3ccco3)c(-c3ccco3)nc2c1)N1CCC2(CC1)OCCO2	4.26
CCOc1ccc(-n2c(Cc3cc(=O)[nH]c(=O)[nH]3)nnc2SC(C)C(=O)OC)cc1 (stereo unspecified)	92.9
COC(=O)COc1ccc(S(=O)(=O)Nc2cc(OC)ccc2OC)cc1	28.2
O=c1c2cc(N3CCOCC3)ccc2[nH]c(=S)n1Cc1ccco1	38.7
O=C(Nc1ccccc1F)c1coc(=O)c(Br)c1	15
O/C=c1\ccc2cccc3nc(C(F)(F)F)nc1c23	2.92
O=C(Nc1ccc(Cl)cc1)Nc1ccc(N2CCC(C(F)(F)F)CC2)nc1	32.5

SMILES	IC50 [µM]
c1coc(-c2nc3ccccc3nc2-c2ccco2)c1	6.44
COC(=O)C1=C(C)NC(=O)/C1=C\c1ccco1	39.7
CCCNC1=C(C)C(=O)C2=C(C1=O)C(COC(N)=O)[C@]1(OC)C3NC3CN21 (stereo partly specified)	22.7
O=C1S/C(=C\C=C\c2ccco2)C(=O)N1c1ccc(O)cc1	2
Cc1cc(C)cc(NC(=O)CSc2nc3c(c(=O)n2C)SC(C)C3)c1 (stereo unspecified)	56.9
Cc1cc(C(=O)CSc2nc3ccccc3c(=O)[nH]2)c(C)n1C	49.2
COc1cccc(NC(=O)CSc2nnc(-c3ccco3)c(-c3ccco3)n2)c1	69.3
CN(C)c1ccc(O)c2c1CC1CC3[C@@H](N(C)C)C(=O)C(C(N)=O)=C(O)[C@]3(O)C(=O)C1=C2O (stereo partly specified)	6.14
Cc1ccc(C(CC(=O)NCc2ccco2)c2ccccc2)c(O)c1 (stereo unspecified)	30
CCn1cc(Br)c(C(=O)Nc2cccc(SC)c2)n1	1.44
Cc1ccc(N/N=C/c2c(C)c(C#N)c(=O)n(C)c2O)cc1C	11.9
CCN1CCN(C2=NC(=O)/C(=C/c3ccc(C)o3)S2)CC1	1.47
CCC(=O)NNc1ncnc2ccccc12	44.5
CC(=O)c1ccc(NC(=O)c2ccc3nc(-c4ccco4)c(-c4ccco4)nc3c2)cc1	7.73
CC1=C(C#N)C(=O)N(C2CCS(=O)(=O)C2)C(=O)/C1=C\c1ccco1 (stereo unspecified)	2.88
Cc1ccc(/C=C2\SC(=S)N(c3cccnc3)C2=O)o1	5.44
O=C(COc1ccccc1Cl)c1ccc[nH]1	14.6
CCc1ccc(NC(=O)N(CCN2CCOCC2)Cc2ccc3c(c2)CCCN3CC)cc1	74.5
Nc1c(C(=O)NC2CC2)sc2nc3c(c(-c4ccco4)c12)CC/C3=C/c1ccco1	0.937

SMILES	IC50 [µM]
COc1ccccc1NCCC(=O)OCC(=O)NCc1ccco1	58
CCOC(=O)c1ccc(NS(=O)(=O)c2ccc3c(c2)oc(=O)n3C)cc1	0.996
Cc1onc(-c2ccccc2Cl)c1C(=O)NCc1ccco1	6.65
CC1=C(C(=O)Nc2ccccc2)C(c2ccc(C)o2)n2c(s/c(=C\c3ccco3)c2=O)=N1 (stereo unspecified)	5.9
N#Cc1c(N)sc(=S)c2c1CCCCC2	1.84
COc1cc(OC)c2c(c1O)OC(c1ccccc1)CC2=O (stereo unspecified)	65.4
Nc1ccc(Nc2ccccc2)c(S(=O)(=O)O)c1	31.4
O=C1NC(c2cccc(Br)c2)=N/C1=C\c1ccco1	9.2
Cc1ccc(/C=c2\sc3nc(-c4cccs4)nn3c2=O)o1	13.6
COc1cc(/C=C/C=C2/CC/C(=C/C=C/c3ccc(O)c(OC)c3)C2=O)ccc1O	44.8
NS(=O)(=O)c1ccc(N/N=C/c2ccc(O)c(O)c2O)c([N+](=O)[O-])c1	7.44
CCn1cc(CNC(=O)c2ccc(Cl)c([N+](=O)[O-])c2)c(C)n1	43
O=C(O)CC(C(=O)O)N1C(=O)/C(=C/C=C/c2ccco2)SC1=S (stereo unspecified)	1.33
Oc1cc2c(cc1O)[C@H]1c3ccc(O)c(O)c3OC[C@@]1(O)C2	15.7
O=c1[nH]c(=S)[nH]c2c1C(c1ccc(Br)cc1)c1c([nH]c(=S)[nH]c1=O)O2	2.72
O=C(O)C1Nc2c(O)cc(Cl)c([N+](=O)[O-])c2C2C=CCC12 (stereo unspecified)	1.64
O=C1NC(=S)N(c2ccccc2)C(=O)/C1=C/c1ccco1	16.2
O=C(CC1C(=O)NCCN1Cc1ccc(F)cc1)NCCN1CCCc2ccccc21 (stereo unspecified)	22.1
